Laboratory results taken from paper PMC9103184, “Kunitz-Type Peptides from Sea Anemones Protect Neuronal Cells against Parkinson’s Disease Inductors via Inhibition of ROS Production and ATP-Induced P2X7 Receptor Activation” (International Journal of Molecular Sciences, 2022).
Bridge positions count the residues as written; N and C are the ends. Ends that are not written are not given here.

Tests used:
[1] = tested on: 6-OHDA-treated cells; conditions: 6-OHDA model; cited from earlier work
[2] = tested on: TRPV1; conditions: cited from earlier work
[3] = molecular target: T1, trypsin (Bos taurus, UniProt P00760); assay: Trypsin inhibition (BAPNA substrate, Dixon's method); assay type: biochemical; conditions: BAPNA 0.6 and 1.2 mM, trypsin 208 nM, peptide 0–20 μM, three parallel experiments, read-out: trypsin inhibitory constant (Ki)
T1 sequence (P00760 24-246): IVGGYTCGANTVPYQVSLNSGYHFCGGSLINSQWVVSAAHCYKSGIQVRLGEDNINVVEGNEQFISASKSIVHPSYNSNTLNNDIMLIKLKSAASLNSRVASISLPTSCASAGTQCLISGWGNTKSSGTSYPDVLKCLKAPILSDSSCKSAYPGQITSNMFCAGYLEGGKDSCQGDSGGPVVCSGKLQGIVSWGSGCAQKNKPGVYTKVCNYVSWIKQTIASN
Description: The trypsin-inhibitory activity of HCIQ1c9 was estimated according to the standard procedure using N-α-benzoyl-D,L-arginine p-nitroanilide (BAPNA) (Sigma-Aldrich, St. Louis, MO, USA) as a substrate. The trypsin inhibition constant was determined using Dyxon’s method using substrate concentrations of 0.6 and 1.2 mM. The trypsin concentration was 208 nM. The range of peptide concentrations was 0–20 μM. The constant was calculated based on the results of three parallel experiments. Computational error limits were in the range of 0.1–0.3%.

[4] = molecular target: T1, trypsin; assay: Residual trypsin-inhibitory activity after heating; assay type: biochemical; conditions: heating in the range from 60 °C to 100 °C; 7 μM peptide, 1.2 mM BAPNA, 37 °C, three parallel experiments
Description: Figure 6 The effects of temperature on the trypsin-inhibitory activity levels of peptides. Peptides were incubated at the temperatures for 30 min and their residual activities were measured.
The temperature influence on the activity levels of peptides was assessed by measuring their residual inhibitory activity levels. After preincubation at temperatures ranging from 25 to 100 °C for 25 min, the peptide solutions were added to trypsin solution and the reaction mixtures were incubated for 10 min at 37 °C, then 1.2 mM BAPNA was added, followed by incubation at 37 °C for 30 min. The final concentration of the peptides was 7 μM. Substrate hydrolysis was measured at 410 nm. The residual activity was calculated based on the results of three parallel experiments according to the following equation [60]:% = (1 − residual enzyme activity/enzyme activity without inhibitor) × 100

Substance | decrease in ROS production below the control [1] | activity on TRPV1 [2] | Ki [3] [nM] | decrease in trypsin-inhibitory activity after heating [4]
HCRG21: Kunitz-type peptide from H. crispa, P0DL86; blocker of TRPV1 (RGICSEPKVVGPCTAYFRRFYFDSETGKCTPFIYGGCEGNGNNFETLRACRAICRA; UniProt P0DL86 1-56, looked up) | up to 87% | blocker of TRPV1 | – | –
IQGNICSEPKKVGRCRRSFPRFYFDSETGKCTPFIYGGCGGNGNNFETLHACRAICRA (disulfide 6-56, 15-39, 31-52) [HCIQ1c9] | – | – | 630 | 30–70%
